Laboratory results taken from patent US8343963B2, “Sulfamoyl-phenyl-ureido compounds and their use as medicament” (4SC AG, priority 2009, dated 2013).
Converted amounts (≈) assume the structure as drawn. Where two headings read alike, the source gives them in different places.

How the values were obtained:
[1] = tested on: multiresistant Dd2 strain of Plasmodium falciparum; assay: Antiplasmodial activity against Dd2 strain of Plasmodium falciparum ([8-3H]hypoxanthine incorporation); type: cell-based; conditions: 66 h, P. falciparum Dd2, 48 h + 18 h with [8-3H]hypoxanthine, 50% parasite growth inhibition, read-out: Antiplasmodia activity (IC50 class)
Procedure, shortened: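 Dd2 parasites at 0.3% parasitaemia and 2.5% haematocrit in RPMI 1640 with 10% human serum were exposed to 0.001–100 μM compound for 48 h. [8-3H]hypoxanthine was then added for a further 18 h and incorporation counted by scintillation. IC50 was fitted as 50% growth inhibition.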

[2] = In vitro clearance using human liver microsomes; type: in vitro ADME; conditions: human liver microsomes 0.5 mg/ml, 1 μM compound, 37° C., 0-30 min
Method: These experiments were performed at Nikem Research (Via Zambeletti 25; Baranzate, Milan, Italy). Test compounds in duplicate at the final concentration of 1 μM were dissolved in DMSO and pre-incubated for 10 min at 37° C. in phosphate buffer pH 7.4, 3 mM MgCl2, with human liver microsomes at the final concentration of 0.5 mg/ml. After the pre-incubation period, reaction was started by adding the cofactor mixture (NADP, Glc6P, G6P-DH); samples were taken at time 0, 5, 10, 15, 20 and 30 min and added to acetonitrile to quench the metabolic reaction, centrifuged and supernatant analysed and quantified by HPLC/MS. A control sample without cofactors was always added in order to check the chemical stability of test compounds. 7-ethoxycoumarin was added as reference standard. A fixed concentration of verapamil was added in every sample as internal standard for HPLC/MS. The concentration of the remaining compound at different times was determined by HPLC/MS. The rate constant, k (min^−1) derived for the exponential decay equation (peak area vs time) was used to calculate the rate of intrinsic clearance (Cli) of the compounds using the following equations: Cli (μl/min/mg compound)=k×V; where: V (μl/mg compound)=incubation volume/mg compound added. In table 3 the clearance (in vitro metabolic stability) classification was as follows: Cli<10=compound stable; Cli between 10 and 60=low metabolism; Cli between 60 and 600=medium metabolism Cli>600=high metabolism.

[3] = Solubility and solubility-range determination in 50 mM phosphate buffer at different pH; type: physicochemical; conditions: aqueous buffer, kinetic from dmso stock, 1% DMSO, 23° C., read-out: Solubility or solubility range
Method: The compounds were dissolved in DMSO at a concentration of 20 mg/ml. These stock solutions were further diluted 1:1 with DMSO (50 μl solution+50 μl DMSO) in seven steps. Subsequently, these solutions were diluted 1:100 (5 μl DMSO-stock+495 μl 50 mM phosphate buffer) in all four pH buffers (respectively: pH=4; pH=6; pH=7.4; pH=9) resulting in a final DMSO concentration of 1% in the buffers. These dilutions were vigorously mixed and transferred into 96-well reading plate. The plates were incubated in a shaker (600 rpm) at 23° C. for 24 hours. After that, the contents of the wells were mixed with a pipette and optical density (OD) was recorded at wavelengths of 550 nm; 600 nm; 650 nm and 700 nm in the Tecan Sunrise plate reader. The cut-off OD sum for an undissolved concentration of a compound was defined as follows: Cut off OD sum=mean blank OD+0.050 OD. For the determination of the solubility range, the following rule was applied: OD>cut off=>compound not dissolved at this concentration OD<cut-off=>compound dissolved at this concentration For the determination of the solubility, a titration curve (OD/concentration) was prepared and the concentrations were determined based on the measured OD of the mixture supernatant after centrifugation. The solubility values are given in μg/ml (table 3).

N=C(c1cccc(NC(=O)Nc2ccc(S(=O)(=O)NCc3ccc(S(N)(=O)=O)cc3)cc2)c1)N1CCNCC1 [Compound 52, 4-(3-(3-(imino(piperazin-1-yl)methyl)phenyl)ureido)-N-(4-sulfamoylbenzyl)benzenesulfonamide]
IC50 [1]: 0.02 to 0.2 µM | In vitro metabolism as determined from Cli [2]: low (Cli between 10 and 60=low metabolism) | solubility at 24 h ([3]; pH 4, 50 mM phosphate buffer): > 0.2 mg/mL | solubility at 24 h ([3]; pH 6, 50 mM phosphate buffer): > 0.2 mg/mL | solubility at 24 h ([3]; pH 7.4, 50 mM phosphate buffer): > 0.2 mg/mL | solubility at 24 h ([3]; pH 9, 50 mM phosphate buffer): > 0.2 mg/mL

CCC(=O)N1CCN(C(=N)c2cccc(NC(=O)Nc3ccc(S(=O)(=O)NCc4ccc(S(N)(=O)=O)cc4)cc3)c2)CC1 [Compound 58, 4-(3-(3-(imino(4-propionylpiperazin-1-yl)methyl)phenyl)ureido)-N-(4-sulfamoylbenzyl)benzenesulfonamide]
IC50 [1]: < 0.02 µM | In vitro metabolism as determined from Cli [2]: low (Cli between 10 and 60=low metabolism) | solubility at 24 h ([3]; pH 4, 50 mM phosphate buffer): > 0.2 mg/mL | solubility at 24 h ([3]; pH 6, 50 mM phosphate buffer): > 0.2 mg/mL | solubility at 24 h ([3]; pH 7.4, 50 mM phosphate buffer): > 0.2 mg/mL | solubility at 24 h ([3]; pH 9, 50 mM phosphate buffer): > 0.2 mg/mL

COC(=O)N1CCN(C(=N)c2cccc(NC(=O)Nc3ccc(S(=O)(=O)NCc4ccc(S(N)(=O)=O)cc4)cc3)c2)CC1 [Compound 60, methyl 4-(imino(3-(3-(4-(N-(4-sulfamoylbenzyl)sulfamoyl)phenyl)ureido)phenyl)methyl)piperazine-1-carboxylate]
IC50 [1]: < 0.02 µM | In vitro metabolism as determined from Cli [2]: medium (Cli between 60 and 600=medium metabolism) | solubility at 24 h ([3]; pH 4, 50 mM phosphate buffer): 1.48 mg/mL (≈ 2350 µM) | solubility at 24 h ([3]; pH 6, 50 mM phosphate buffer): 1.29 mg/mL (≈ 2040 µM) | solubility at 24 h ([3]; pH 7.4, 50 mM phosphate buffer): 0.763 mg/mL (≈ 1210 µM) | solubility at 24 h ([3]; pH 9, 50 mM phosphate buffer): 0.456 mg/mL (≈ 724 µM)
